Assays:
Histone deacetylase 3 = Histone deacetylase 3 (Homo sapiens, UniProt O15379); test: Inhibition of recombinant human HDAC3 after 60 mins by fluorescence assay
Histone deacetylase 8 = molecular target: T1, Histone deacetylase 8 (Homo sapiens, UniProt Q9BY41); test: Inhibition of recombinant human HDAC8 after 60 mins by fluorescence assay
T1 sequence (Q9BY41 whole entry): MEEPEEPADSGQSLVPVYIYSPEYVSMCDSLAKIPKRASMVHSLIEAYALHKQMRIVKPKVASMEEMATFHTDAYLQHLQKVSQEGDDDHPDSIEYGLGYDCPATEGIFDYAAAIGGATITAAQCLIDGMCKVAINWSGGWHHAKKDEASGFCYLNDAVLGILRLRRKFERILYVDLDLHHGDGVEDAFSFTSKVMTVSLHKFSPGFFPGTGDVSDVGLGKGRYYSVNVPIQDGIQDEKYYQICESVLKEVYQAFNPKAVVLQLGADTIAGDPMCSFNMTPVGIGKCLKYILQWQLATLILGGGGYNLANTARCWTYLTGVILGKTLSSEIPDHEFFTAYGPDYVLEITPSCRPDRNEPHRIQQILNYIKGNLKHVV

Histone deacetylase 9 = Histone deacetylase 9 (Homo sapiens, UniProt Q9UKV0); test: Inhibition of recombinant human HDAC9 after 60 mins by fluorescence assay
[1] = molecular target: T2, Protein deacetylase HDAC6 (Homo sapiens, UniProt Q9UBN7); test: Inhibition of recombinant human HDAC6 after 60 mins by fluorescence assay
T2 sequence (Q9UBN7 whole entry): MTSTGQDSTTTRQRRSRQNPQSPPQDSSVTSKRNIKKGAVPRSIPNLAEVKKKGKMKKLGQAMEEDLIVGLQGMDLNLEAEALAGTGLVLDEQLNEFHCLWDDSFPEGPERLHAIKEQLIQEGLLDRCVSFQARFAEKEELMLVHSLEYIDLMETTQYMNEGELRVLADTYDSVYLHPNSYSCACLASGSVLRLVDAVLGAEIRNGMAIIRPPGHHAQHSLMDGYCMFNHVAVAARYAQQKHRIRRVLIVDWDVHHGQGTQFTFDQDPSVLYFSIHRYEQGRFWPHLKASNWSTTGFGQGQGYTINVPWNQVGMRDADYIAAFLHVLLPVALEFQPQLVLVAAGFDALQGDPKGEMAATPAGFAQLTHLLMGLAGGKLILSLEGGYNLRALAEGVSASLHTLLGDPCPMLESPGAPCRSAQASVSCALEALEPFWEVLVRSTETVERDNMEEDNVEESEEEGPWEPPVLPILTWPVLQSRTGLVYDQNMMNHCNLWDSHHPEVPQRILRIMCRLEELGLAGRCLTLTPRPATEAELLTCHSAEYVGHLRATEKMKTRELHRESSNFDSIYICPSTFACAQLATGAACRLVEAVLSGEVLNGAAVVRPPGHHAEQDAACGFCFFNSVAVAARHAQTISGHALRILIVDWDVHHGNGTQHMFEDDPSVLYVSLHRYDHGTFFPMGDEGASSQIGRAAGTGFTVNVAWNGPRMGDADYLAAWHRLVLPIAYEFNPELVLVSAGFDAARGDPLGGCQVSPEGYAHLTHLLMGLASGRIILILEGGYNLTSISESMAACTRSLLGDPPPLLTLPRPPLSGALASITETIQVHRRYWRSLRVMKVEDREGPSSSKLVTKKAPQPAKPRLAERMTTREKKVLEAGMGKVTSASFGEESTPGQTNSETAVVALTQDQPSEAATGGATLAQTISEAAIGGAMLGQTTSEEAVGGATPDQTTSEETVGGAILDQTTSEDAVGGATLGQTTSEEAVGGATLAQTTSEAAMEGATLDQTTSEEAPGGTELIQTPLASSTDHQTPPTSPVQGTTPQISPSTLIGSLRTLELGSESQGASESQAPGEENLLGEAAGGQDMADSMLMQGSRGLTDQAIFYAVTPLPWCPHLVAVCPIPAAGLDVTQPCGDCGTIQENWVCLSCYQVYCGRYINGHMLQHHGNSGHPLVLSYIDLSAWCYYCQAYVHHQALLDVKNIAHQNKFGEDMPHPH

DU-145 [2] = test: Antiproliferative activity against human DU145 cells after 72 hrs by CCK8 assay; format: functional; details: Homo sapiens, DU-145, 72 h
[3] = Antiproliferative activity against human MOLT4 cells after 72 hrs by CCK8 assay; format: functional, MOLT-4; details: Homo sapiens, MOLT-4, 72 h
U-937 = test: Antiproliferative activity against human U937 cells after 72 hrs by CCK8 assay; format: functional; details: Homo sapiens, U-937, 72 h
[4] = Aqueous solubility of the compound; format: physicochemical; details: buffer
DU-145 [5] = test: Antitumor activity against human DU145 cells xenografted in iv dosed BALB/c mouse assessed as delay in tumor growth after 4 weeks; format: functional, organism-based
DU-145 [6] = test: Antitumor activity against human DU145 cells xenografted in BALB/c mouse assessed as delay in tumor growth at 20 mg/kg, iv administered for 5 times a week for after 4 weeks; format: functional
DU-145 [7] = test: Antitumor activity against human DU145 cells xenografted in BALB/c mouse assessed as delay in tumor growth at 40 mg/kg, iv administered for 5 times a week for after 4 weeks; format: functional
DU-145 [8] = test: Antitumor activity against human DU145 cells xenografted in BALB/c mouse assessed as delay in tumor growth at 80 mg/kg, iv administered for 5 times a week for after 4 weeks; format: functional
DU-145 [9] = test: Antitumor activity against human DU145 cells xenografted in BALB/c mouse assessed as tumor growth inhibition at 20 mg/kg, iv administered for 5 times a week for after 4 weeks; format: functional; details: DU-145, iv, 672 h, read-out: GI
Mus musculus [10] = test: Toxicity in human DU145 cells xenografted BALB/c mouse assessed as change in body weight at 20 to 80 mg/kg, iv administered for 5 times a week for after 4 weeks; format: organism-based, DU-145; details: in vivo, 672 h
Mus musculus [11] = test: Toxicity in human DU145 cells xenografted BALB/c mouse assessed as mortality at 20 to 80 mg/kg, iv administered for 5 times a week for after 4 weeks; format: organism-based, DU-145; details: in vivo, 672 h
DU-145 [12] = test: Fold increase in DU145 over HLF selectivity (GI50 ratio) relative to FK228 after 72 hrs by CCK8 assay
DU-145 [13] = test: Fold increase in DU145 over HLF selectivity (GI50 ratio) relative to largazole after 72 hrs by CCK8 assay

Chain of Histone deacetylase 3 (O15379 whole entry): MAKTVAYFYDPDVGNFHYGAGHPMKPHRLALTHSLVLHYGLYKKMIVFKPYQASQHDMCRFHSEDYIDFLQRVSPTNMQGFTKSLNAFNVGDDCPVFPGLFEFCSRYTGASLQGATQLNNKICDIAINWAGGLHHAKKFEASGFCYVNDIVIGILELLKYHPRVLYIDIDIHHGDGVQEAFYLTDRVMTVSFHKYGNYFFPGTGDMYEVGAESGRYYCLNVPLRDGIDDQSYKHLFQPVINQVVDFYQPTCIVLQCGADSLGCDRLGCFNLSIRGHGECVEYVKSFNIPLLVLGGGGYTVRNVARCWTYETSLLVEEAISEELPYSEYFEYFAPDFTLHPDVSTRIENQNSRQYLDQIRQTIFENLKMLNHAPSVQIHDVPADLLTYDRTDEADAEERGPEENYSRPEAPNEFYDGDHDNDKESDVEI
Chain of Histone deacetylase 9 (Q9UKV0 whole entry): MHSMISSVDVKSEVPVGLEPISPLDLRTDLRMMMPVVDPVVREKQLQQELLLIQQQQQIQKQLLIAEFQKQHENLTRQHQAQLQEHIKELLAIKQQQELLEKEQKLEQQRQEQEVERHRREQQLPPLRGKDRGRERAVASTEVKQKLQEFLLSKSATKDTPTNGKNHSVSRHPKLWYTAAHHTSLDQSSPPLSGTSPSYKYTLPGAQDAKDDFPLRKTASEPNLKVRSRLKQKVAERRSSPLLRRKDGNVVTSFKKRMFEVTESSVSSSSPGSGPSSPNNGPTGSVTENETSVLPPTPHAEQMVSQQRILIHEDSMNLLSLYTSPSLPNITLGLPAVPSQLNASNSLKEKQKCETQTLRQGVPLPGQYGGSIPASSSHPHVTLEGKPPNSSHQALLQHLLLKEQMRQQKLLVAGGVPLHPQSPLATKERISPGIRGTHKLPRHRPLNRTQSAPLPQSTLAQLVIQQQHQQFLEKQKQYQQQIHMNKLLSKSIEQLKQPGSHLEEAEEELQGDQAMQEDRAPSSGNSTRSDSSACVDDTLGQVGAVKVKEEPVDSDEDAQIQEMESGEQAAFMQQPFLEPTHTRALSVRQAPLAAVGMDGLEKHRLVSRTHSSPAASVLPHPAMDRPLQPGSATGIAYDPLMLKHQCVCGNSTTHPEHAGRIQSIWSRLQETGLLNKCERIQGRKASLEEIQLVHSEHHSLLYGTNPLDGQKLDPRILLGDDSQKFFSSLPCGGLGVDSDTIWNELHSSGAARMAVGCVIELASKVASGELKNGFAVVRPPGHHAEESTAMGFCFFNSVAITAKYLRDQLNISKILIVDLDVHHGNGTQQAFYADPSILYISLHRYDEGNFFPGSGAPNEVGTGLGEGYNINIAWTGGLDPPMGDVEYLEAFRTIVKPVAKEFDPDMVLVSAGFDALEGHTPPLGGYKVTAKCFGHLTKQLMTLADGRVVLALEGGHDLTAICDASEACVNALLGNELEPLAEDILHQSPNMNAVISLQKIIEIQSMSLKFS

Row | Compound | IC50 (Histone deacetylase 3) [µM] | IC50 (Histone deacetylase 8) [µM] | IC50 (Histone deacetylase 9) [µM] | IC50 [1] [µM] | GI50 (DU-145 [2]) [µM] | GI50 [3] [µM] | GI50 (U-937) [µM] | solubility [4] | Activity (DU-145 [5]) | Activity (DU-145 [6]) [%] | Activity (DU-145 [7]) [%] | Activity (DU-145 [8]) [%] | inhibition in vivo at 20 mg/kg (DU-145 [9]) [%] | Activity (Mus musculus [10]) | Activity (Mus musculus [11]) | Ratio (DU-145 [12]) | Ratio (DU-145 [13])
1 | C/C=C1\NC(=O)c2csc(n2)CNC(=O)C[C@@H](/C=C/CCSC(C)=O)OC(=O)[C@H](C(C)C)NC1=O | 0.073 | > 10 | > 10 | 4.63 | 0.011 | 0.00722 | 0.0105 | soluble | Dose-dependent effect | 51.7 | 75.2 | 81.2 | 51.7 | Non-toxic | Non-toxic |  | 
2 | C/C=C1\NC(=O)c2csc(n2)[C@@H](C(C)C)NC(=O)C[C@@H](/C=C/CCSC(=O)CCCCCCC)OC(=O)[C@H](C(C)C)NC1=O | 3.15 | > 10 | > 10 | > 10 | 0.0205 | 0.022 | 0.0317 |  |  |  |  |  |  |  |  | 8 | 
3 | C/C=C1\NC(=O)c2csc(n2)CNC(=O)C[C@@H](/C=C/CCSC(=O)CCCCCCC)OC(=O)[C@H](C(C)C)NC1=O | 1.68 | > 10 | > 10 | 6.95 | 0.00699 | 0.00587 | 0.00659 |  |  |  |  |  |  |  |  | 22 | 20

More lines, main results first:

Row | IC50 (Histone deacetylase 3) [µM] | IC50 (Histone deacetylase 8) [µM] | IC50 (Histone deacetylase 9) [µM] | IC50 [1] [µM] | Compound | GI50 (DU-145 [2]) [µM] | GI50 [3] [µM] | GI50 (U-937) [µM] | solubility [4] | Activity (DU-145 [5]) | Activity (DU-145 [6]) [%] | Activity (DU-145 [7]) [%] | Activity (DU-145 [8]) [%] | inhibition in vivo at 20 mg/kg (DU-145 [9]) [%] | Activity (Mus musculus [10]) | Activity (Mus musculus [11]) | Ratio (DU-145 [12]) | Ratio (DU-145 [13])
4 | 0.00767 | 3.55 | > 10 | 0.331 | C/C=C1\NC(=O)c2csc(n2)CNC(=O)C[C@@H](/C=C/CCS)OC(=O)[C@H](C(C)C)NC1=O |  |  |  |  |  |  |  |  |  |  |  |  | 
5 | 0.00977 | 2.55 | > 10 | 0.459 | C/C=C1\NC(=O)c2csc(n2)[C@@H](C(C)C)NC(=O)C[C@@H](/C=C/CCS)OC(=O)[C@H](C(C)C)NC1=O |  |  |  |  |  |  |  |  |  |  |  |  | 
